This experiment deals with LGC-54 (Caenorhabditis elegans, UniProt O17041). Kind of experiment: Two-electrode voltage clamp, agonist-evoked currents in Xenopus oocytes expressing LGC-54. Format: cell-based, C. elegans. From the text:
We aimed to deorphanize C. elegans LGICs without known ligands, focusing on 5 genes in the putative monoamine-gated group: lgc-50; lgc-51; lgc-52; lgc-54; and lgc-56 (previously named ggr-3). Using heterologous overexpression in Xenopus oocytes and two-electrode voltage clamp recordings, we measured channel activity evoked by application of 11 monoamines and other neurotransmitters.
Defolliculated Xenopus laevis oocytes were obtained from EcoCyte Bioscience (Dortmund, Germany) and maintained in ND96 (in mM: 96 NaCl, 1 MgCl2, 5 HEPES, 1.8 CaCl2, 2 KCl) solution at 16°C for 3-5 days.
5'-capped cRNA was synthesized in vitro using the T3 mMessage mMachine transcription kit according to manufacturer’s protocol (Thermo Fischer Scientific, CA, USA). RNA was then purified using the GeneJET RNA purification kit (Thermo Fischer Scientific, CA, USA) prior to cRNA injection. Defolliculated Xenopus oocytes were placed individually into 96 well plates and injected with 50nL of 500ng/μL RNA using the Roboinject system (Multi Channel Systems GmbH, Reutlingen, Germany). When two constructs were injected the total RNA concentration remained 500ng/μL, with a 1:1 ratio of the components. Injected oocytes were incubated at 16°C in ND96 until the day of recording, typically between 3-5 days post injection.
Two-electrode voltage clamp recordings were carried out using the Robocyte2 recording system or a manual TEVC set up, using an OC-725D amplifier (Multi Channel Systems, Reutlingen, Germany) and paired with a custom-made recording chamber and agar bridges from reference and bath electrodes. Glass electrodes were pulled on a P-1000 Micropipette Puller (Sutter, Ca, USA) with a resistance ranging from 0.7-2 MΩ, pipettes, containing AgCl wires, were backfilled with a 3 M KCl solution for manual recordings and 1.5M KCl and 1 M acetic acid for Robocyte2 recordings. Oocytes were clamped at −60mV unless stated otherwise. Continuous recordings were taken during application of agonists and antagonists at 500 Hz. Data was recorded using WinWCP or RoboCyte2 control software, manual data was filtered at 10 Hz.
Dose response curves were calculated from the peak current during a 10 s agonist stimulation in ND96 solution, with a 60 s ND96 wash in between doses. Data was gathered over at least two occasions, using different batches of oocytes. Normalized dose response data was fitted to a nonlinear curve using a four parameters variable slope and the EC50 and Hill slope was calculated. All further recordings were carried out with the agonist at its EC50 concentration unless stated otherwise. Ion selectivity was determined using a voltage ramp protocol of 20mV/s ranging from −80mV to +60mV in the presence or absence of the primary agonist in three different solutions: ND96, NMDG (Na^+ free) and Na Gluconate (low Cl^-) solutions. Normalized ramp curves were fitted to a linear regression line and the x intercept was compared between solutions to calculate an average Erev from 4-5 oocytes. Antagonist dose response curves were calculated from the peak current during a 10 s agonist + antagonist stimulation in ND96 solution, with the agonist concentration remaining constant. Repeated agonist stimulus protocols were carried out by measuring the peak current during a 10 s agonist stimulation at three wash intervals, 10 s, 30 s and 60 s. Kinetic measurements were calculated from a 60 s agonist perfusion. Python scripts for TEVC analysis can be found at on GitHub at hiris25/TEVC-analysis-scripts and on Zenodo https://doi.org/10.5281/zenodo.5095181.
Dose response and antagonist response curves were generated using custom-built python scripts (key resources table), which combined data from multiple recordings and normalized data by calculating I/Imax for each oocyte.

Sequence of LGC-54 (O17041 entry or part of it): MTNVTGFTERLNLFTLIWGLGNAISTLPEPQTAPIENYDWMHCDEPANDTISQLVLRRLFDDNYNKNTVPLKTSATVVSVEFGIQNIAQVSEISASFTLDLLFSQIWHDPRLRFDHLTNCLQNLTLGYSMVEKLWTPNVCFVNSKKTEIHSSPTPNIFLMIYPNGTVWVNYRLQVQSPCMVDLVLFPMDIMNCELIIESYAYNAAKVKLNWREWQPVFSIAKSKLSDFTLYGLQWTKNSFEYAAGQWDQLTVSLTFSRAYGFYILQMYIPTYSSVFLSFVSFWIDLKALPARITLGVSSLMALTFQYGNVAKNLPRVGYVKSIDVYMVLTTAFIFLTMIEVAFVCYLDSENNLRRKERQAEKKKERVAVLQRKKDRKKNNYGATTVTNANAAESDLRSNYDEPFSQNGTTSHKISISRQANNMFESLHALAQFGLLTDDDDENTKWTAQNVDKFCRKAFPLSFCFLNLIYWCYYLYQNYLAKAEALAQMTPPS

With `NCCc1c[nH]c2ccc(O)cc12` [5-HT, serotonin], where the note is “Xenopus oocytes, TEVC, current normalized to Imax, Hill equation with variable slope, read-out: EC50, agonist-evoked dose response, LGC-54”, the EC50 was 94 µM. The “Channel activation in ligand screen, LGC-54” value (ligands screened at 100 μM, oocytes clamped at −60 mV) is given as “responded to 5-HT at high concentrations”.

The record behind these values is PMC8536830 (Current Biology, 2021).
